Reference: US8372379B2, “Technetium-99m (I) tricarbonyl complexes with tridentate chelators for myocardium imaging” (Mallinckrodt LLC, priority 2006, dated 2013)

Assay: Biodistribution of 99mTc complexes in female CD-1 mice after intravenous injection
Assay type: in vivo
Conditions: i.v.
Protocol: These studies have been designed as a preliminary screening tool to evaluate the biological profile of the cationic tricarbonyl complexes. The biodistribution of the complexes was evaluated in groups of 5 female CD-1 mice (randomly bred, Charles River) weighing approximately 20-25 g each and have been performed according to EEC Legislation (National Law 129/92) on ethical and animal care. Animals were intravenously injected with 100 μL (1.5-8.0 MBq) of each preparation via the tail vein and were maintained on normal diet ad libitum. […] The injected radioactive dose and the radioactivity remaining in the animal after sacrifice were measured in a dose calibrator (Aloka, Curiemeter IGC-3, Tokyo, Japan). The difference between the radioactivity in the injected and sacrificed animal was assumed to be due to total excretion from whole body animal. Blood samples were taken by cardiac puncture at sacrifice. Tissue samples of the main organs were then removed, weighted and counted in a gamma counter (Berthold). Biodistribution results were expressed as percentage of the injected dose per organ (% ID/organ) and/or per gram tissue (% ID/g). For blood, total activity was calculated assuming that this organ constitutes 6% of the total weight, respectively. The remaining activity in the carcass was also measured in a dose calibrator.

[C-]#[N+]CC(C)(C)OC.[C-]#[N+]CC(C)(C)OC.[C-]#[N+]CC(C)(C)OC.[C-]#[N+]CC(C)(C)OC.[C-]#[N+]CC(C)(C)OC.[C-]#[N+]CC(C)(C)OC.[Tc] [^99mTc-Sestamibi]
Blood uptake (5 min p.i.): 2.0 ± 0.4 % ID/g of wet organ
Heart uptake (5 min p.i.): 9.4 ± 0.4 % ID/g of wet organ
Heart/Blood ratio (5 min p.i.): 4.1 ± 0.7
Heart/Liver ratio (5 min p.i.): 0.9 ± 0.2
Heart/Lung ratio (5 min p.i.): 3.5 ± 0.8
Kidney uptake (5 min p.i.): 34.2 ± 2.4 % ID/g of wet organ
Liver uptake (5 min p.i.): 9.0 ± 1.8 % ID/g of wet organ
Lung uptake (5 min p.i.): 2.4 ± 0.6 % ID/g of wet organ
Blood uptake (1 h (60 min) p.i.): 1.2 ± 0.4 % ID/g of wet organ
Heart uptake (1 h (60 min) p.i.): 8.0 ± 0.6 % ID/g of wet organ
Heart/Blood ratio (1 h (60 min) p.i.): 7.9 ± 3.6
Heart/Liver ratio (1 h (60 min) p.i.): 1.4 ± 0.1
Heart/Lung ratio (1 h (60 min) p.i.): 6.3 ± 0.6
Kidney uptake (1 h (60 min) p.i.): 14.8 ± 6.1 % ID/g of wet organ
Liver uptake (1 h (60 min) p.i.): 5.6 ± 0.3 % ID/g of wet organ
Lung uptake (1 h (60 min) p.i.): 1.3 ± 0.2 % ID/g of wet organ
Blood uptake (2 h (120 min) p.i.): 1.1 ± 0.3 % ID/g of wet organ
Heart uptake (2 h (120 min) p.i.): 7.9 ± 1.0 % ID/g of wet organ
Heart/Blood ratio (2 h (120 min) p.i.): 7.4 ± 2.3
Heart/Liver ratio (2 h (120 min) p.i.): 1.8 ± 0.7
Heart/Lung ratio (2 h (120 min) p.i.): 9.2 ± 1.1
Kidney uptake (2 h (120 min) p.i.): 9.7 ± 1.8 % ID/g of wet organ
Liver uptake (2 h (120 min) p.i.): 5.0 ± 2.1 % ID/g of wet organ
Lung uptake (2 h (120 min) p.i.): 0.9 ± 0.2 % ID/g of wet organ
